Experimental data from publication PMC9506633, “Design, synthesis, anti-proliferative evaluation, docking, and MD simulations studies of new thiazolidine-2,4-diones targeting VEGFR-2 and apoptosis pathway” (PLoS ONE, 2022).
Entries after “also recorded” stand apart in the source; their conditions may differ.

Key:
A549 = experiment: MTT anti-proliferative assay, A549; type: cell-based; conditions: for IC50: Homo sapiens, A549 cell line, MTT; for Selectivity index (A549): SI = Cytotoxicity against Vero cells / Cytotoxicity against A549 cell line
Procedure: (§1) The cytotoxicity effects of the synthesized candidates were evaluated against A549, Caco-2, HepG2, and MDA-mb-231 cell lines. MTT assay method was applied using the sub-IC50 concentrations of each compound as the treatment dose. Doxorubicin was used as a reference molecule. […] Also, it was noticed that Caco-2 was the most sensitive cell line.
(§2) The synthesized compounds were evaluated for their anti-proliferative activities against A549, Caco-2, HepG2, and MDA-mb-231 cell lines using the MTT assay protocol as described in S.1.2. Section in S1 File.
(§3) Mammalian cell lines culture
(§4) CaCo-2, and A549 cell lines were cultured on DMEM media, meanwhile MDA-MB-231 and hepG-2 cell line were cultured on RBMI media. The cultured media were supplemented with 200 mM L-glutamine, 10.0% fetal bovine serum (Lonza), and 1.0% penicillin/streptomycin. Cells were seeded into 25.0 cm tissue culture flasks and incubated at 37 ◦C in a 5.0% CO 2 incubator for 24 h or till confluency.
(§5) The safety profiles of the tested compounds were checked on one non-cancerous cell line (Vero) to […]
(§6) of 100.0 µl of 6×10^4 cell/ml cells was seeded in to each well of a 96-well plate and then the plates were incubated at 37 °C in a humidified 5.0% CO2 incubator for 24 h. At the end of incubation period, the exhausted medium was replaced with 100.0 µl of different concentrations of the designated treatment (prepared in RPMI medium starting from 1.0 mM). The inoculated plates were incubated at the same growth conditions for another 24 h. At the end of incubation, cellular viability was assessed using MTS assay kit (Promega) according to the manual instruction.
(§7) S.1.2. In-vitro anticancer activity
(§8) Anticancer activities of the tested compounds against CaCo-2, MDA-MB-231, and hepG-2 cell lines were quantified using MTS assay kit (Promega) as described by the Manufacturer. […]

[1] = MTT anti-proliferative assay, Caco-2; type: cell-based; conditions: African green monkey (Vero); human (Caco-2); SI = Cytotoxicity against Vero cells / Cytotoxicity against Caco-2 cell line; read-out: Selectivity index (Caco-2)
Procedure: as §1, §2, §3, §4, §5, §6, §7, §8

Caco-2 = experiment: MTT anti-proliferative assay, Caco-2; type: cell-based; conditions: Homo sapiens; Caco-2 cell line, MTT; read-out: Anti-proliferative activity (IC50 μM) Caco2
Procedure: as §1, §2, §3, §4, §5, §6, §7, §8

HepG2 = experiment: MTT anti-proliferative assay, HepG2; type: cell-based; conditions: for IC50: Homo sapiens, HepG2 cell line, MTT; for Selectivity index (HepG2): SI = Cytotoxicity against Vero cells / Cytotoxicity against HepG2 cell line
Procedure: as §1, §2, §3, §4, §5, §6, §7, §8

MDA-mb-231 = experiment: MTT anti-proliferative assay, MDA-mb-231; type: cell-based; conditions: for IC50: Homo sapiens, MDA-mb-231 cell line, MTT; for Selectivity index (MDA-MB-231): SI = Cytotoxicity against Vero cells / Cytotoxicity against MDA-MB-231 cell line
Procedure: as §1, §2, §3, §4, §5, §6, §7, §8

VEGFR-2 = biological target: T1, VEGFR-2 (Homo sapiens, UniProt P35968); experiment: In vitro VEGFR-2 inhibition (VEGFR-2 ELISA kit); type: biochemical; conditions: for IC50: ELISA kit; for HillSlope (best-fit value) / LogIC50 (best-fit value): dose-response curve fit, raw data S.5
T1 construct: purchased
T1 sequence (P35968 20-1356): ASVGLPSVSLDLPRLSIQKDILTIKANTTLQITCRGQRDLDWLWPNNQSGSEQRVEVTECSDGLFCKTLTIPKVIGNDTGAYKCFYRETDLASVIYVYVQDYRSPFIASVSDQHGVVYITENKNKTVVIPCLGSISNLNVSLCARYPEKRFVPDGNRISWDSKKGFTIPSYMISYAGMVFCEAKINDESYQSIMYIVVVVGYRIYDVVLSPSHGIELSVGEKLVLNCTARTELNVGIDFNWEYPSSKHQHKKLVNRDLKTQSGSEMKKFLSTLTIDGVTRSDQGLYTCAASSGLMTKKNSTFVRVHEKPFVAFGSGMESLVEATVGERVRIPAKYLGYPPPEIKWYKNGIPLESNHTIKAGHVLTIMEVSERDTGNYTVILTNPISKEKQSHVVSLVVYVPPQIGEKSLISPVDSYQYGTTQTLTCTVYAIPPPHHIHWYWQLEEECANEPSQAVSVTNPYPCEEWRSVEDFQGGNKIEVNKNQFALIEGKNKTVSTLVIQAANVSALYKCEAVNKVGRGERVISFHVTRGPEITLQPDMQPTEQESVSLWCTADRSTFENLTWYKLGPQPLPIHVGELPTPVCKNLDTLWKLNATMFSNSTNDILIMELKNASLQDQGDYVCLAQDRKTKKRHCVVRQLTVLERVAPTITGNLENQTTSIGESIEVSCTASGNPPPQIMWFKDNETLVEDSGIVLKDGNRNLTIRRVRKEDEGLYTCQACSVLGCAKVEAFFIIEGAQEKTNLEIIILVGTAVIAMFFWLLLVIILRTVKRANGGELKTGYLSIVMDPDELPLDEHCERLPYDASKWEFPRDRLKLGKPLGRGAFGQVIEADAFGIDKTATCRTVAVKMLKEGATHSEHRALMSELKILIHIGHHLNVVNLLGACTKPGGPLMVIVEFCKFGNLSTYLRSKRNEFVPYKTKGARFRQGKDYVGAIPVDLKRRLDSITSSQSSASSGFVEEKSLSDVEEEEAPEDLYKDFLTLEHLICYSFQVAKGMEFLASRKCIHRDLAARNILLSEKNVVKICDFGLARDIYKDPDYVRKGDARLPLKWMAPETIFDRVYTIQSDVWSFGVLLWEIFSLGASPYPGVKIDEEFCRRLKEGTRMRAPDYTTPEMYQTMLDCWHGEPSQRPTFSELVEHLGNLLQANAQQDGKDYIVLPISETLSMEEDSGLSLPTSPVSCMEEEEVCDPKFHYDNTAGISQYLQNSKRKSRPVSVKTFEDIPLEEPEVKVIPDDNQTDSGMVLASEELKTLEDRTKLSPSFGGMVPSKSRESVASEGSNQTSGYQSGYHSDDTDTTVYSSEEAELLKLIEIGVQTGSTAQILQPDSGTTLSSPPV
Procedure: Compounds 10a, b and 14a-c were evaluated for their VEGFR-2inhibitory activity.
VEGFR-2 ELISA kit was used in this test as described in S.1.3. Section in S1 File. […]
S.1.3. In vitro VEGFR-2 kinase assay
All the synthesized compounds were tested for its inhibitory activity against VEGFR-2. Human VEGFR-2 ELISA kit (Enzyme-Linked Immunosorbent Assay) was utilized in this test. At first, specific antibody for VEGFR-2 was seeded on a 96-well plate and 100 μL of the standard solution or the tested compound was added, all were incubated at room temperature for 2.5 h. Then washed, 100 μL of the prepared biotin antibody was added, then incubated at room temperature for additional 1 h. and washed. Then, 100 μL of streptavidin solution was added and incubated for 45 min. at room temperature. Washed again, 100 μL of TMB Substrate reagent was added and incubated for 30 min. at room temperature. 50 μL of the stop solution was added, then read at 450 nm immediately. The standard curve was drawn, concentrations on the X-axis and the absorbance

[2] = Safety assay: cytotoxicity against Vero non-cancer cell line; type: cell-based; conditions: African green monkey, Vero cells (non-cancer cell line); Vero normal cell line
Procedure: In this work, the safety pattern of the synthesized derivatives 10a, b and 14a-c was also evaluated by testing their in vitro cytotoxicity against Vero non-cancer cell line using the MTT assay protocol.
Section in S1 File.
Mammalian cell lines culture […]
The cultured media were supplemented with 200 mM L-glutamine, 10.0% fetal bovine serum (Lonza), and 1.0% penicillin/streptomycin. Cells were seeded into 25.0 cm tissue culture flasks and incubated at 37 ◦C in a 5.0% CO 2 incubator for 24 h or till confluency.
as §5
as §6, with “instruction. […]” for “instruction.”

Caco-2 cells = experiment: In vitro scratch (wound healing, migration) assay; type: cell-based; conditions: Caco-2, 1 μM
Procedure: The in vitro scratch assay[38] was used to assess the prospective of compound 14a to inhibit the ability of Caco-2 cells to migrate and heal. The basic idea behind this test is to create a scratch in a cancer cell line monolayer, measure the diameter at the start time and at regular intervals to investigate the potential of the cancer cell to migrate and heal. The findings of the treated cell line are then compared to the untreated cell line.
Cell Migration assay was conducted according to the reported protocol as described [59]in S.1.5. Section in S1 File.
S.1.4. Selectivity index (SI)
The selectivity index values of the tested compounds on cancer cells were calculated as described by Koch et al., with slight modifications; SI=IC50nc/IC50cc, where IC50nc: the IC50 value of the tested compound on normal cells and IC 50cc: IC50 of the tested compound on cancer cell line .
S.1.5. Wound healing assay (Migration assay)
CaCo-2 cells were grown to 95.0% confluency in a complete DMEM medium and then the wounds were formed using a plastic tip. […] After incubation at 37°C and 5.0% CO2 for 24h, the cells were washed with PBS and the wounds distance was determined as the scratch width of the treated and untreated groups using […]
S.1.6. […] The RTq-PCR was done using SYBR Green dye (QuantiTect SYBR Green PCR Kits) and Light Cycler fluorimeter (Bio-RAD S1000 Tm thermal cycler). […]

Bcl-2 = experiment: RT-qPCR gene expression in Caco-2, Bcl-2; type: cell-based; conditions: Caco-2, 1.5 μM, compared to control cells
Description: (§9) The molecular anticancer mode of action of 14a was investigated by screening their ability to control the gene expression levels of Bcl2, Bcl-xl, TGF and Survivin genes as reported in S.1.6. Section in S1 File.
(§10) S.1.4. Selectivity index (SI) […]
(§11) S.1.6. Gene expression pattern alt ernation of cancer cell after 1 4a treatment The molecular anticancer mode of action of 14a was investigated by screening their ability to affect the gene expression levels of Bcl2, Bcl -xl, TGF and Survivin genes using specific forward and reverse primers and RTq-PCR technique (Table 1) in CaCo-2 cells (chosen as the most sensitive cancer cell line). After cellular treatment, CaCo-2 cell line was cultured into 12 well plates (6×10^3 cell/ml) for 24 h. with the sub-IC50 concentration of 14a. After treatment, total RNA extraction was performed using RNA extraction kit (Qiagen, Germany). Then, 1 ug of the obtained RNA was used to synthesiz cDNA using cDNA synthesis kit (Promega Corp., Madison, WI) as recommended by the manufacturer. Simultaneously, GAPDH forward and reverse primers (Table 1) were used to amplify the house keeping gene as internal control for standardization of PCR products. The RTq-PCR was done using SYBR Green dye (QuantiTect SYBR Green PCR Kits) and Light Cycler fluorimeter (Bio-RAD S1000 Tm thermal cycler). […]

Bcl-xl = experiment: RT-qPCR gene expression in Caco-2, Bcl-xl; type: cell-based; conditions: Caco-2, 1.5 μM, compared to control cells
Description: as §9, §10, §11

Survivin = experiment: RT-qPCR gene expression in Caco-2, Survivin; type: cell-based; conditions: Caco-2, 1.5 μM, compared to control cells
Description: as §9, §10, §11

TGF = experiment: RT-qPCR gene expression in Caco-2, TGF; type: cell-based; conditions: Caco-2, 1.5 μM, compared to control cells
Description: as §9, §10, §11

SMILES | IC50 (A549) | Selectivity index (A549) (A549) | selectivity ratio [1] | IC50 (Caco-2) | IC50 (HepG2) | Selectivity index (HepG2) (HepG2) | IC50 (MDA-mb-231) | Selectivity index (MDA-MB-231) (MDA-mb-231) | IC50 (VEGFR-2) | HillSlope (best-fit value) (VEGFR-2) | LogIC50 (best-fit value) (VEGFR-2) | IC50 at 24 h [2] | Inhibition of migration and healing of Caco-2 cells (Caco-2 cells; 24 h) | Width of the scratch (Caco-2 cells; after 24 h, control scratch width at 0 hr 0.356 mm) | Bcl-2 gene expression level (Bcl-2) | Bcl-xl gene expression level (Bcl-xl) | Survivin gene expression level (Survivin) | TGF gene expression level (TGF)
COc1ccc2[nH]c(=O)c(/C=C3\SC(=O)N(CC(=O)Nc4ccc(Cl)cc4)C3=O)cc2c1 [Compound 10a, (Z)-N-(4-Chlorophenyl) -2-(5-((6-methoxy-2-oxo-1,2-dihydroquinolin-3-yl)methylene) -2,4-dioxothiazolidin-3-yl)acetamide] | 85 ± 7.5 µM | 2.280 | 2.35 | 82.5 ± 7.2 µM | 174 ± 16.3 µM | 1.118 | 132 ± 5.2 µM | 1.460 | 0.0652 ± 0.0055 µM | -0.4587 | 1.814 Log (nM) | 194 ± 18.2 µM | – | – | – | – | – | –
O=C(CN1C(=O)SC(=C2C(=O)Nc3ccccc32)C1=O)Nc1ccc(Cl)cc1 [Compound 14a, N-(4-Chlorophenyl)-2-(2,4-dioxo-5-(2-oxoindolin-3-ylidene)thiazolidin-3-yl)acetamide] | 170 ± 14.5 µM | 1.704 | 212 | 1.5 ± 0.08 µM | 31.5 ± 2.5 µM | 9.196 | 84 ± 7.3 µM | 3.375 | 0.0915 ± 0.0082 µM | -0.4675 | 1.961 Log (nM) | 290 ± 28.3 µM | inhibit the migration and healing of Caco-2 cells in a significant manner; also recorded: significantly inhibited the ability of cancer cells to migrate and heal | 0.293 mm | significant reduction; also recorded: significant down-regulation; also recorded: downregulate | non-detectable change | significant reduction; also recorded: significant down-regulation; also recorded: downregulate | significant reduction; also recorded: significant down-regulation; also recorded: downregulate
COc1cccc2c1C(=O)c1c(O)c3c(c(O)c1C2=O)C[C@@](O)(C(=O)CO)C[C@@H]3O[C@H]1C[C@H](N)[C@H](O)[C@H](C)O1 [Doxorubicin, reference compound] | 86.4 ± 7.1 µM | – | – | 3.5 ± 0.22 µM | 1.2 ± 0.07 µM | – | 0.98 ± 0.001 µM | – | – | – | – | – | – | – | – | – | – | –
